One block for each compound: values may come before it.
Legend:
[1] = target: Serine/threonine-protein kinase B-raf (Homo sapiens) (UniProt P15056); assay: Selectivity interaction (SelectScreen profiling (Invitrogen)) EUB0000607a BRAF; conditions: at 2 µM
[2] = target: AP2-associated protein kinase 1 (Homo sapiens, UniProt Q2M2I8); assay: Selectivity interaction (Kinase panel (DSF assay)) EUB0001489b AAK1
[3] = target: Phosphatidylinositol 3-kinase catalytic subunit type 3 (Homo sapiens, UniProt Q8NEB9); assay: Selectivity interaction (KinomeScan (DiscoverX)) EUB0000695a PIK3C3; conditions: at 100 nM
[4] = target: Tyrosine-protein kinase Srms (Homo sapiens) (UniProt Q9H3Y6); assay: Selectivity interaction (KinomeScan (DiscoverX)) EUB0000595a SRMS; conditions: at 10 µM
[5] = target: Serine/threonine-protein kinase OSR1 (Homo sapiens) (UniProt O95747); assay: Selectivity interaction (Ambit KINOMEscan and KiNATiv profiling in Jurkat cells) EUB0000090b OXSR1; format: cell-based; conditions: at 1 µM
[6] = target: Calcium/calmodulin-dependent protein kinase type II subunit alpha (Homo sapiens, UniProt Q9UQM7); assay: Selectivity interaction (KinomeScan (DiscoverX)) EUB0001079a CAMK2A; conditions: at 1 µM
[7] = target: T1, Serine/threonine-protein kinase D1 (Homo sapiens) (UniProt Q15139); assay: Selectivity interaction (KinomeScan (DiscoverX)) EUB0000092b PRKD1; conditions: at 10 µM
T1 sequence (whole entry): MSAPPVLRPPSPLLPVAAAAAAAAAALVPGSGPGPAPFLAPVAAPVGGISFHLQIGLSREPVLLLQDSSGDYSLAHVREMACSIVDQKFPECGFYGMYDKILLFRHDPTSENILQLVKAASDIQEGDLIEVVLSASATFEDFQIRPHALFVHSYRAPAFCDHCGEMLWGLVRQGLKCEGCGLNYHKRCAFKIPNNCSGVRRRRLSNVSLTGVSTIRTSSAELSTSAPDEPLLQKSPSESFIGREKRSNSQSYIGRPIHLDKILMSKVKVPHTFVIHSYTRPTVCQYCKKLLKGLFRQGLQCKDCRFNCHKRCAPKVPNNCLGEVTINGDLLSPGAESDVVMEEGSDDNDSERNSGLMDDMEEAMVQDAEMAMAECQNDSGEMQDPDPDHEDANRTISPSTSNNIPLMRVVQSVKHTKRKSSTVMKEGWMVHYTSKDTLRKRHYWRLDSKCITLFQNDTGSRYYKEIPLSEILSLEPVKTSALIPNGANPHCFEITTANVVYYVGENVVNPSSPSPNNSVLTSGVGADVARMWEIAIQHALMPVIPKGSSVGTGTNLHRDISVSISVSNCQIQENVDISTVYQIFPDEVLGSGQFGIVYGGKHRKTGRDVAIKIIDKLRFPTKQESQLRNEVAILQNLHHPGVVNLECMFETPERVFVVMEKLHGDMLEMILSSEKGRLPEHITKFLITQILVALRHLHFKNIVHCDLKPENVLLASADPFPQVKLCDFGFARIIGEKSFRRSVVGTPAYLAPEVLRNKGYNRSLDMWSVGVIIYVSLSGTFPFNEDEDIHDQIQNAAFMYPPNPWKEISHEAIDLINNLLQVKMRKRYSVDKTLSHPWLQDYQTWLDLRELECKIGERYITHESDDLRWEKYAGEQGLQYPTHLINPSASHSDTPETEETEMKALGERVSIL

[8] = target: Cyclin-dependent kinase 3 (Homo sapiens) (UniProt Q00526); conditions: at 10 µM
[9] = target: Death-associated protein kinase 3 (Homo sapiens) (UniProt O43293); assay: Selectivity interaction (KinomeScan (DiscoverX)) EUB0000618a DAPK3; conditions: at 10 µM
[10] = target: T2, Dual specificity protein kinase TTK (Homo sapiens) (UniProt P33981); assay: Selectivity interaction (KinomeScan (DiscoverX)) EUB0000618a TTK; conditions: at 10 µM
T2 sequence (whole entry): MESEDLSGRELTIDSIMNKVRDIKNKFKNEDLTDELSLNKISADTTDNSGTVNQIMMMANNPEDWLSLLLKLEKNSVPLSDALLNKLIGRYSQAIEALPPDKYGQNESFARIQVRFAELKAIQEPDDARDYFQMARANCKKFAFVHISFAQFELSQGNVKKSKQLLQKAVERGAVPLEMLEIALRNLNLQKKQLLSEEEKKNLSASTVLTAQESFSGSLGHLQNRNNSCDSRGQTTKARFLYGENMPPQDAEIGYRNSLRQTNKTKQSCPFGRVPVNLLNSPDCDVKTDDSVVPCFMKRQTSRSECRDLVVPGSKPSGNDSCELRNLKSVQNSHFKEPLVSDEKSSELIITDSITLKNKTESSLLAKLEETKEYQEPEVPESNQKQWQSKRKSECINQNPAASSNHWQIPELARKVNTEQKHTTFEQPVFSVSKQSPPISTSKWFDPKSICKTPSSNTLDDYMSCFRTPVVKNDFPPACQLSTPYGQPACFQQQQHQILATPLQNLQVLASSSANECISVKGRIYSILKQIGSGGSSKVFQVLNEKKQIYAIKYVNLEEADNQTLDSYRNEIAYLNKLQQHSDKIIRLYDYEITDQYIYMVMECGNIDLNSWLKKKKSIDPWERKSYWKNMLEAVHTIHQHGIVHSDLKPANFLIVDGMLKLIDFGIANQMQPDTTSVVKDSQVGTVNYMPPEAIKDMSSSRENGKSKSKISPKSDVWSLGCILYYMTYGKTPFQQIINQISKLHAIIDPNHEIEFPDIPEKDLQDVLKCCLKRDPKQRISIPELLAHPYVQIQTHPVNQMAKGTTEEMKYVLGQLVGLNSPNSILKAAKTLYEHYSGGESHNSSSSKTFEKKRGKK

Sequence of AP2-associated protein kinase 1 (Q2M2I8 whole entry, looked up): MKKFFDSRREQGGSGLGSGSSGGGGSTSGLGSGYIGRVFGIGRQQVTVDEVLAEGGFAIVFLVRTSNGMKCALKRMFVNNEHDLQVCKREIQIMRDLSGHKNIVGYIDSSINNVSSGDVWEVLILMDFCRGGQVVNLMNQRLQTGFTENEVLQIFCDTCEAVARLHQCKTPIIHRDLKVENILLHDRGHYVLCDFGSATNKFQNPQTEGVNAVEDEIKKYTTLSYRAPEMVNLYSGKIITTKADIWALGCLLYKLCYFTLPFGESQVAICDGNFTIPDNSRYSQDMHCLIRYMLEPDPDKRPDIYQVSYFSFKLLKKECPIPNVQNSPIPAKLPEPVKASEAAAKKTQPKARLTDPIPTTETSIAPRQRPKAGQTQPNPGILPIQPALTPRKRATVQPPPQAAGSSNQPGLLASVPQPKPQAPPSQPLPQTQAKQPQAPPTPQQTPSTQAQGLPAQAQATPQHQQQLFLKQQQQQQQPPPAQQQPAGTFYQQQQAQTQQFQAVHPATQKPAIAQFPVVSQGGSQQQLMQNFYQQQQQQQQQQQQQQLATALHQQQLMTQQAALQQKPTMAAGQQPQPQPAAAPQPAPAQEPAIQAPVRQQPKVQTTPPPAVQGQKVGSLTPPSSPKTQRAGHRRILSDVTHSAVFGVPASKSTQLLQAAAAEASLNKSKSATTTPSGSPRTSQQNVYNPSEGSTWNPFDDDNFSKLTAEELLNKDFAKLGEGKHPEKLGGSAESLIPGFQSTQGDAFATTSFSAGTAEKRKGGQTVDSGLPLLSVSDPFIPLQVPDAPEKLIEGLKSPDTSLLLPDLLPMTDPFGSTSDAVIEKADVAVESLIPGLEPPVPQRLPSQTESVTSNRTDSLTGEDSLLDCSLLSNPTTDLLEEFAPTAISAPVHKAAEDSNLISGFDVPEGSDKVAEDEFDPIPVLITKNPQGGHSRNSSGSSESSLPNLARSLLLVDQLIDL
Sequence of Phosphatidylinositol 3-kinase catalytic subunit type 3 (Q8NEB9 whole entry): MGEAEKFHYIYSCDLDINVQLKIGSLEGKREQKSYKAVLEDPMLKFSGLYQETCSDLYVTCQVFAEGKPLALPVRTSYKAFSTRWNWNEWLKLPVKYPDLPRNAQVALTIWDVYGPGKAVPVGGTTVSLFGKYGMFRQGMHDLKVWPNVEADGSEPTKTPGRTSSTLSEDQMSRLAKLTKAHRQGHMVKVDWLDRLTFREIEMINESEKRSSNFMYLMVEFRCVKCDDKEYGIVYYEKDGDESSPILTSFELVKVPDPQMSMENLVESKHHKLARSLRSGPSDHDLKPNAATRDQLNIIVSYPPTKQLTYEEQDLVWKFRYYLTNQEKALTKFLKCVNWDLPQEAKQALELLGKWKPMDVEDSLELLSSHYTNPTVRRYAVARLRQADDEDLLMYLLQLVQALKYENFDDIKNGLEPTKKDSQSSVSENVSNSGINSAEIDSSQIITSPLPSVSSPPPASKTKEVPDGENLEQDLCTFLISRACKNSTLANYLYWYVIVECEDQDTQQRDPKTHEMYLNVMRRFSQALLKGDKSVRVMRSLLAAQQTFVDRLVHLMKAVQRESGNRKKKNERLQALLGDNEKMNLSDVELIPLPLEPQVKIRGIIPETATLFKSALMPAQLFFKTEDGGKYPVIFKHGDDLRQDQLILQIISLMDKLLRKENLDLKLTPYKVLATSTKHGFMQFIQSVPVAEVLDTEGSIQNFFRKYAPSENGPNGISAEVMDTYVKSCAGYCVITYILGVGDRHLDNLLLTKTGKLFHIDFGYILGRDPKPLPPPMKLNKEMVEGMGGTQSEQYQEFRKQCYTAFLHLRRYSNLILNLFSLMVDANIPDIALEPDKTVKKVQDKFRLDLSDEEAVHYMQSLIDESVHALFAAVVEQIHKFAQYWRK
Sequence of Death-associated protein kinase 3 (Homo sapiens) (O43293 whole entry, looked up): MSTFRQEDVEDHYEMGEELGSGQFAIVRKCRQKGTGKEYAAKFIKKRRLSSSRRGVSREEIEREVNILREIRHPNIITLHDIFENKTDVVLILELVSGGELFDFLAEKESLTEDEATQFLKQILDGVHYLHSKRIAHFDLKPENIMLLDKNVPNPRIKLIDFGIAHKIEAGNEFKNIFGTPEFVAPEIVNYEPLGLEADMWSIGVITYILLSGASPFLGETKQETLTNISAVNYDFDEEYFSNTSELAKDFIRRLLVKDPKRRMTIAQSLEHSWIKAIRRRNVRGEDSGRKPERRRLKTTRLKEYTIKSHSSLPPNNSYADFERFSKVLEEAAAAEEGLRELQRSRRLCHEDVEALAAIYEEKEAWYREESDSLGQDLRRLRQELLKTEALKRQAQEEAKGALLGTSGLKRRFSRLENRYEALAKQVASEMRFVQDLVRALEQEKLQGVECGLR
Sequence of Cyclin-dependent kinase 3 (Homo sapiens) (Q00526 whole entry, looked up): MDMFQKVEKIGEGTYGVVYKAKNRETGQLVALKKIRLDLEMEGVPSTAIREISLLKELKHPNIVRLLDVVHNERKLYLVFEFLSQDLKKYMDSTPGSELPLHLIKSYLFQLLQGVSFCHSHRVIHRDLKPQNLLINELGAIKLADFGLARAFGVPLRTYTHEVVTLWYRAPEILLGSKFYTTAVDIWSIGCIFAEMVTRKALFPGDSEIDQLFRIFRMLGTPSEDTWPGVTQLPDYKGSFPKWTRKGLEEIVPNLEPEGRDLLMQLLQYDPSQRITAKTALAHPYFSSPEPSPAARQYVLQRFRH
Sequence of Calcium/calmodulin-dependent protein kinase type II subunit alpha (Q9UQM7 whole entry): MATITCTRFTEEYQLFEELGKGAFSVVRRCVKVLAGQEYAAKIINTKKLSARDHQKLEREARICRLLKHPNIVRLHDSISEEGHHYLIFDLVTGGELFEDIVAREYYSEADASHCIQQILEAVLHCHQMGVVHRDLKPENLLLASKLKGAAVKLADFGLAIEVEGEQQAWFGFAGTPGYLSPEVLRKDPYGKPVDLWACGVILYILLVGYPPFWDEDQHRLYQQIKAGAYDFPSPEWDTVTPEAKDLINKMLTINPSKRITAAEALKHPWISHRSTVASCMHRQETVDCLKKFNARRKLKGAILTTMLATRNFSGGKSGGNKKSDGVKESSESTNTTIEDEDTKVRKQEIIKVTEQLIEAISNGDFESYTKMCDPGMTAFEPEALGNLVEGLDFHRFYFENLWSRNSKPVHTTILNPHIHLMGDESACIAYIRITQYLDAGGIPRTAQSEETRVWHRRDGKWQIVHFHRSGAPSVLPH
Sequence of Serine/threonine-protein kinase B-raf (Homo sapiens) (P15056 whole entry): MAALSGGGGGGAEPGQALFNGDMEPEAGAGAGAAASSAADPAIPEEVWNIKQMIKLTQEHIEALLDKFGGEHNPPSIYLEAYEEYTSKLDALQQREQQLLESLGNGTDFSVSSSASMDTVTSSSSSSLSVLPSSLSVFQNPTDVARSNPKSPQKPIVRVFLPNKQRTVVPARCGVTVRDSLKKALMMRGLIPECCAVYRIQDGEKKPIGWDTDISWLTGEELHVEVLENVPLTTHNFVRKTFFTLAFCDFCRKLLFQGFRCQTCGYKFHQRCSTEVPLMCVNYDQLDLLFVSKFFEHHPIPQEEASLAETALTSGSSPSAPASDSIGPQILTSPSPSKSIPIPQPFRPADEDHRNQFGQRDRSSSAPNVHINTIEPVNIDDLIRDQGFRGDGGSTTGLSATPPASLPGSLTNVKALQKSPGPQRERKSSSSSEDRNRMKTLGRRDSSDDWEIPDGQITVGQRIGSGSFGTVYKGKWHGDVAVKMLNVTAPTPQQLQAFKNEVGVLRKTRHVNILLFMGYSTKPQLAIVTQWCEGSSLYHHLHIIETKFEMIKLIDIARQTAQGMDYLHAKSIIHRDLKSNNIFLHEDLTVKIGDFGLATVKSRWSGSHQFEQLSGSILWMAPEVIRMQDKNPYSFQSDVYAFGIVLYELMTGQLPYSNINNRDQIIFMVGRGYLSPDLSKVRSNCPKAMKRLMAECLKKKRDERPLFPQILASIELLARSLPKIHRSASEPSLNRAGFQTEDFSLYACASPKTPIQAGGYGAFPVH
Sequence of Tyrosine-protein kinase Srms (Homo sapiens) (Q9H3Y6 whole entry): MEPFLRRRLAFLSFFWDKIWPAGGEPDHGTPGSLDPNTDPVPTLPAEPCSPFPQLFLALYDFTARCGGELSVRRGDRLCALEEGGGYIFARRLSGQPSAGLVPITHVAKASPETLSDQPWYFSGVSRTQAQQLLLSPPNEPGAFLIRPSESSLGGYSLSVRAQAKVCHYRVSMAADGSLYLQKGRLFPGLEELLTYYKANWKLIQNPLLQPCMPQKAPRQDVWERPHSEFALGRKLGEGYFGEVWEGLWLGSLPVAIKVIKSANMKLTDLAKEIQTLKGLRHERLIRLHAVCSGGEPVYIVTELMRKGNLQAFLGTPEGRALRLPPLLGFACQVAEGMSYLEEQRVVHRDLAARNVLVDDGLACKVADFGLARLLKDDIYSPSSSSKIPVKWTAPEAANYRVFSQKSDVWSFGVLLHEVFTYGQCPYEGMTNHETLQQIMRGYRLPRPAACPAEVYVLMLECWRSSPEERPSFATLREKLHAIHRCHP
Sequence of Serine/threonine-protein kinase OSR1 (Homo sapiens) (O95747 2-527 limits assumed): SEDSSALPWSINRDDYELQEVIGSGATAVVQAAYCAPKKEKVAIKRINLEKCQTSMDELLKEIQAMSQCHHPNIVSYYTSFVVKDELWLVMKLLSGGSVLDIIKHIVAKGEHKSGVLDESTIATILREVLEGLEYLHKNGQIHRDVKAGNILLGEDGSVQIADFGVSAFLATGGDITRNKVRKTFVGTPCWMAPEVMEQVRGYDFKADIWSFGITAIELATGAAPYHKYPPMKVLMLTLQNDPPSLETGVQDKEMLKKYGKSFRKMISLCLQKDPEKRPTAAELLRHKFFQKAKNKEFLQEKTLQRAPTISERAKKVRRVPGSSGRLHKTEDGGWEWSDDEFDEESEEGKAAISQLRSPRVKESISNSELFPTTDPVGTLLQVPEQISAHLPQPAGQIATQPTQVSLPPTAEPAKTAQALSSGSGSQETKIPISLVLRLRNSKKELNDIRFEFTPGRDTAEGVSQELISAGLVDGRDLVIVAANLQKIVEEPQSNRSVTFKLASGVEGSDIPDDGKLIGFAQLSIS

Structure (SMILES): CNC(=O)Nc1ccc(-c2nc(N3CC4CCC(C3)O4)c3cnn(C4CCC5(CC4)OCCO5)c3n2)cc1
% of inhibition [1]: -16%

dTM [2]: 4.2 K
Structure (SMILES): CN1CCN(C(=O)c2ccc3cc2OCCOCCNc2ccn4ncc-3c4n2)CC1

Structure (SMILES): Cc1cc(F)c(C(=O)Nc2cccc(-c3nncn3C(C)C)n2)cc1-n1cnc(C2CC2)c1
% of control [3]: 88%

Structure (SMILES): COCC(=O)NC/C=C/c1ccc2ncnc(Nc3ccc(Oc4ccc(C)nc4)c(C)c3)c2c1 [CP-724714]
% of control [4]: 71%

Structure (SMILES): CN(C)C/C=C/C(=O)Nc1ccc(C(=O)N2CCCC(Nc3ncc(Cl)c(-c4c[nH]c5ccccc45)n3)C2)cc1 (stereo not given)
% of control [5]: 87%

Structure (SMILES): Nc1cnc(N2CCc3cc(S(=O)(=O)Nc4c(F)cc(Cl)cc4F)cc(N4CCCC4=O)c32)nc1 [TP-020n]
% of control [6]: 92%

Structure (SMILES): CCC(=O)N1CCN(c2ccc(-n3c(=O)ccc4cnc5ccc(-c6cnc7ccccc7c6)cc5c43)cc2C(F)(F)F)CC1
% of control [7]: 99%

Structure (SMILES): Cc1cc([C@@H](C)Nc2ccccc2C(=O)O)c2nc(N3CCOCC3)cc(=O)n2c1 [AZD-6482]
% of control [8]: 100%

Structure (SMILES): O[C@H]1CC[C@H](Nc2ncc3nc(Nc4c(F)cc(F)cc4F)n([C@H]4CCOC4)c3n2)CC1
% of control [9]: 100%
% of control [10]: 85%
